Results published in the NIST ThermoML archive (doi:10.1021/acs.jced.8b00554).
± gives the expanded uncertainty stated by the source.

Assay: xn = mol fraction of the nth substance listed
Conditions: 333.15 K, Liquid, Vibrating tube method

CCCCCCCC [octane] + CCCO
Conditions	mass density [kg/m3]
5010 kPa, x2 = 0.2111	682.8 ± 4.4
5020 kPa, x2 = 0.1631	680.6 ± 4.4
5020 kPa, x2 = 0.3158	688.8 ± 4.4
5020 kPa, x2 = 0.4411	698.53 ± 4.5
5020 kPa, x2 = 0.7301	726.33 ± 4.7
6000 kPa, x2 = 0.2111	683.81 ± 4.4
6010 kPa, x2 = 0.3158	689.87 ± 4.4
6010 kPa, x2 = 0.4411	699.54 ± 4.5
6010 kPa, x2 = 0.7301	727.35 ± 4.7
6010 kPa, x2 = 0.8823	750.8 ± 4.8
6020 kPa, x2 = 0.1631	681.62 ± 4.4
7000 kPa, x2 = 0.1631	682.67 ± 4.4
7000 kPa, x2 = 0.2111	684.85 ± 4.4
7000 kPa, x2 = 0.3158	690.9 ± 4.4
7010 kPa, x2 = 0.4411	700.57 ± 4.5
7010 kPa, x2 = 0.8823	751.79 ± 4.8
7020 kPa, x2 = 0.7301	728.39 ± 4.7
8000 kPa, x2 = 0.8823	752.76 ± 4.8
8010 kPa, x2 = 0.1631	683.7 ± 4.4
8010 kPa, x2 = 0.7301	729.39 ± 4.7
8020 kPa, x2 = 0.2111	685.89 ± 4.4
8020 kPa, x2 = 0.3158	691.91 ± 4.4
8020 kPa, x2 = 0.4411	701.57 ± 4.5
9000 kPa, x2 = 0.4411	702.6 ± 4.5
9010 kPa, x2 = 0.1631	684.68 ± 4.4
9010 kPa, x2 = 0.2111	686.89 ± 4.4
9010 kPa, x2 = 0.3158	692.93 ± 4.4
9010 kPa, x2 = 0.7301	730.37 ± 4.7
9010 kPa, x2 = 0.8823	753.69 ± 4.8
10000 kPa, x2 = 0.2111	687.87 ± 4.4
10000 kPa, x2 = 0.8823	754.64 ± 4.8
10010 kPa, x2 = 0.3158	693.93 ± 4.5
10010 kPa, x2 = 0.7301	731.35 ± 4.7
10020 kPa, x2 = 0.1631	685.68 ± 4.4
10020 kPa, x2 = 0.4411	703.57 ± 4.5
11000 kPa, x2 = 0.3158	694.92 ± 4.5
11010 kPa, x2 = 0.1631	686.66 ± 4.4
11010 kPa, x2 = 0.4411	704.56 ± 4.5
11010 kPa, x2 = 0.7301	732.33 ± 4.7
11010 kPa, x2 = 0.8823	755.6 ± 4.8
11020 kPa, x2 = 0.2111	688.87 ± 4.4
12000 kPa, x2 = 0.2111	689.87 ± 4.4
12000 kPa, x2 = 0.4411	705.54 ± 4.5
12010 kPa, x2 = 0.8823	756.54 ± 4.8
12020 kPa, x2 = 0.1631	687.66 ± 4.4
12020 kPa, x2 = 0.3158	695.9 ± 4.5
12020 kPa, x2 = 0.7301	733.28 ± 4.7
13000 kPa, x2 = 0.8823	757.44 ± 4.8
13010 kPa, x2 = 0.3158	696.87 ± 4.5
13020 kPa, x2 = 0.1631	688.62 ± 4.4
13020 kPa, x2 = 0.2111	690.84 ± 4.4
13020 kPa, x2 = 0.4411	706.46 ± 4.5
13020 kPa, x2 = 0.7301	734.24 ± 4.7
14010 kPa, x2 = 0.2111	691.78 ± 4.4
14010 kPa, x2 = 0.3158	697.84 ± 4.5
14010 kPa, x2 = 0.4411	707.42 ± 4.5
14010 kPa, x2 = 0.8823	758.35 ± 4.9
14020 kPa, x2 = 0.1631	689.54 ± 4.4
14020 kPa, x2 = 0.7301	735.17 ± 4.7
15000 kPa, x2 = 0.1631	690.49 ± 4.4
15000 kPa, x2 = 0.2111	692.73 ± 4.4
15010 kPa, x2 = 0.4411	708.36 ± 4.5
15020 kPa, x2 = 0.3158	698.76 ± 4.5
15020 kPa, x2 = 0.7301	736.09 ± 4.7
15020 kPa, x2 = 0.8823	759.26 ± 4.9
16000 kPa, x2 = 0.1631	691.42 ± 4.4
16000 kPa, x2 = 0.4411	709.26 ± 4.5
16010 kPa, x2 = 0.2111	693.66 ± 4.5
16010 kPa, x2 = 0.3158	699.72 ± 4.5
16010 kPa, x2 = 0.8823	760.14 ± 4.9
16020 kPa, x2 = 0.7301	737.02 ± 4.7
17010 kPa, x2 = 0.2111	694.6 ± 4.5
17010 kPa, x2 = 0.3158	700.63 ± 4.5
17010 kPa, x2 = 0.4411	710.16 ± 4.6
17010 kPa, x2 = 0.7301	737.93 ± 4.7
17020 kPa, x2 = 0.1631	692.33 ± 4.4
17020 kPa, x2 = 0.8823	761.01 ± 4.9
18000 kPa, x2 = 0.1631	693.25 ± 4.5
18010 kPa, x2 = 0.3158	701.51 ± 4.5
18010 kPa, x2 = 0.4411	711.06 ± 4.6
18010 kPa, x2 = 0.7301	738.78 ± 4.7
18010 kPa, x2 = 0.8823	761.87 ± 4.9
18020 kPa, x2 = 0.2111	695.49 ± 4.5
19000 kPa, x2 = 0.1631	694.12 ± 4.5
19000 kPa, x2 = 0.3158	702.41 ± 4.5
19000 kPa, x2 = 0.7301	739.68 ± 4.7
19000 kPa, x2 = 0.8823	762.72 ± 4.9
19010 kPa, x2 = 0.2111	696.36 ± 4.5
19020 kPa, x2 = 0.4411	711.94 ± 4.6
20000 kPa, x2 = 0.1631	694.96 ± 4.5
20000 kPa, x2 = 0.2111	697.38 ± 4.5
20010 kPa, x2 = 0.3158	703.29 ± 4.5
20010 kPa, x2 = 0.7301	740.54 ± 4.8
20010 kPa, x2 = 0.8823	763.55 ± 4.9
20020 kPa, x2 = 0.4411	711.91 ± 4.6
